From patent US9732075B2, “Benzimidazole-proline derivatives” (IDORSIA PHARMACEUTICALS LTD, priority 2012, dated 2017)

Columns and labels:
human orexin-1 receptor = human orexin-1 receptor (Homo sapiens (Human), UniProt O43613); test: In vitro assay: intracellular calcium measurements (FLIPR), antagonistic activity; format: cell-based; settings: CHO cells expressing human orexin-1 receptor, orexin-A agonist, geometric mean, read-out: IC50 Ox1
How it was run: (§1)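 Orexin-A-evoked calcium rise (3 nM final, roughly EC70) was recorded with fluo-4 in recombinant CHO cells, human receptor subtype 1 or 2.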

human orexin-2 receptor = human orexin-2 receptor (Homo sapiens (Human), UniProt O43614); test: as above; format: cell-based; settings: CHO cells expressing human orexin-2 receptor, orexin-A agonist, geometric mean, read-out: IC50 Ox2
Chain of human orexin-2 receptor (O43614 whole entry): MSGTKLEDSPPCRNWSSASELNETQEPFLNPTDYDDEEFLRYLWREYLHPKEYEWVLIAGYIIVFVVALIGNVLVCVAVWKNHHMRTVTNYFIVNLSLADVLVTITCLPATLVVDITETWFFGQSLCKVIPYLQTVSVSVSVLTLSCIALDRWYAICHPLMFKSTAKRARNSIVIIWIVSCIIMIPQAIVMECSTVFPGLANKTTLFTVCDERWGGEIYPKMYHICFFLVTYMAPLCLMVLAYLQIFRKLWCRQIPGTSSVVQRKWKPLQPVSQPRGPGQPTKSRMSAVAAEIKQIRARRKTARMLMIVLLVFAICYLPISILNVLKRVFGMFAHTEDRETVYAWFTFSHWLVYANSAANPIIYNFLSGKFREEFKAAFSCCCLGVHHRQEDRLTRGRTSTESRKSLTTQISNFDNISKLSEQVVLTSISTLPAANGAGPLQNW
How it was run: as §1

Chain of human orexin-1 receptor (O43613 whole entry): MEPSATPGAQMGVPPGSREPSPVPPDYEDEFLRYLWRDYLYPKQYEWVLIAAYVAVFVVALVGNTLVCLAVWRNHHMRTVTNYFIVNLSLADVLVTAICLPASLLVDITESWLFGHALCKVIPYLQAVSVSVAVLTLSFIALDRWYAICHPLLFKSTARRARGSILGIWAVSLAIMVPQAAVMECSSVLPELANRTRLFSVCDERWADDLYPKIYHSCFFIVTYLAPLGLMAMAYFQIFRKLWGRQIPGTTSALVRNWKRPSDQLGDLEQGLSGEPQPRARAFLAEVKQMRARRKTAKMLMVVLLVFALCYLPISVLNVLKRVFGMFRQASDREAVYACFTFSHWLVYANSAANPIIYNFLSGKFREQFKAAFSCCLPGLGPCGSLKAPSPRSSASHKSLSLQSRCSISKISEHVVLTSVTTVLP

IC50 (human orexin-1 receptor)	IC50 (human orexin-2 receptor)	SMILES
298 nM	37 nM	C=C1C[C@@H](c2nc3cc(OC)ccc3[nH]2)N(C(=O)c2ccccc2-c2ccc(C)cc2)C1 [Ex. 6.15]
59 nM	90 nM	C=C1CN(C(=O)c2ccccc2-c2ccc(C)c(C)c2)C(C)(c2nc3cc(OC)ccc3[nH]2)C1 (centres unmarked) [Ex. 6.149]
49 nM	75 nM	Cc1c(Cl)ccc2[nH]c([C@]3(C)CCCN3C(=O)c3ccccc3-n3cccn3)nc12 [Ex. 5.42]
31 nM	60 nM	CCn1c([C@]2(C)CCCN2C(=O)c2cc(C)ccc2-c2ccccc2F)nc2cc(C)c(C)cc21 [Ex. 7.45]
108 nM	42 nM	C=C1CC(c2nc3cc4ccccc4cc3[nH]2)N(C(=O)c2cc(C)sc2-c2ccc(C)c(C)c2)C1 (centres unmarked) [Ex. 6.85]
16 nM	162 nM	COc1ccc(-n2nccn2)c(C(=O)N2C[C@H](OC)C[C@H]2c2nc3ccc(Cl)c(C)c3n2C)c1 [Ex. 7.1]
34 nM	380 nM	Cc1ccc(-c2ncccn2)c(C(=O)N2CCC[C@@]2(C)c2nc3cc(OC(F)(F)F)ccc3[nH]2)c1 [Ex. 5.281]
4 nM	3 nM	C=C1CC(c2nc3c(OC)ccc(OC)c3[nH]2)N(C(=O)c2nc(C3CC3)sc2-c2cccc(C)c2)C1 (centres unmarked) [Ex. 6.98]
33 nM	22 nM	Cc1cc(C)c2nc(C3CCCN3C(=O)c3nc(C)sc3-c3ccccc3)[nH]c2c1 (centres unmarked) [Ex. 1.127]
69 nM	289 nM	Cc1nc(C(=O)N2CCCC2c2nc3cc(F)c(Br)cc3[nH]2)c(-c2cccc(Cl)c2)s1 (centres unmarked) [Ex. 1.112]
34 nM	671 nM	COc1cccc(-c2nc(C(=O)N3CCC[C@@]3(C)c3nc4cc(Cl)c(C(F)(F)F)cc4[nH]3)c(-c3ccc(F)cc3)s2)c1 [Ex. 5.292]
42 nM	261 nM	C[C@@]1(c2nc3cc(C(F)(F)F)ccc3[nH]2)CCCN1C(=O)c1cc(C#N)ccc1-n1nccn1 [Ex. 5.180]
13 nM	17 nM	CSc1cccc2nc([C@@H]3CCCN3C(=O)c3cncnc3-c3ccc(Cl)c(Cl)c3)[nH]c12 [Ex. 1.82]
14 nM	315 nM	Cc1ccc(-n2nccn2)c(C(=O)N2CC[C@H](C)[C@H]2c2nc3cc(Cl)cc(C)c3[nH]2)c1 [Ex. 4.39]
54 nM	858 nM	COc1ccccc1-c1nc(C(=O)N2CCC[C@@]2(C)c2nc3c(C)c(Cl)ccc3[nH]2)c(-c2ccc(F)cc2)s1 [Ex. 5.229]
21 nM	50 nM	Cc1nc(C(=O)N2CCCC2c2nc3cc(Cl)c(C)cc3[nH]2)c(-c2cccc(Cl)c2)s1 (centres unmarked) [Ex. 1.101]
667 nM	10 nM	C=C1C[C@@H](c2nc3ccc(OC)cc3[nH]2)N(C(=O)c2cc(OC)ccc2-n2nccn2)C1 [Ex. 6.140]
47 nM	25 nM	C=C1C[C@@H](c2nc3cc(Cl)c(C(F)(F)F)cc3[nH]2)N(C(=O)c2nc(C)ccc2-n2cccn2)C1 [Ex. 6.189]
2 nM	833 nM	Cc1nc(C(=O)N2CC[C@H](C)[C@H]2c2nc3cc(C)c(C)cc3[nH]2)c(-c2cccc(Cl)c2)s1 [Ex. 4.10]
35 nM	130 nM	Cc1ccc(-n2nccn2)c(C(=O)N2CCC[C@@]2(C)c2nc3cc(C)c(C)cc3[nH]2)n1 [Ex. 5.62]
22 nM	18 nM	COc1cc2nc([C@]3(C)CCCN3C(=O)c3cc(C)ccc3-n3nccn3)[nH]c2cc1OC [Ex. 5.21]
5 nM	23 nM	CSc1cccc2nc([C@@H]3CCCN3C(=O)c3cnc(C)nc3-c3ccc(C)c(C)c3)[nH]c12 [Ex. 1.85]
154 nM	62 nM	COc1cccc(-c2sc(C)nc2C(=O)N2CCC[C@H]2c2nc3ccc(SC)cc3[nH]2)c1 [Ex. 1.37]
265 nM	161 nM	Cc1ccc(-c2ccc(F)cc2C)c(C(=O)N2CCC[C@@]2(C)c2nc3c(C)c(C)ccc3[nH]2)c1 [Ex. 5.108]
23 nM	88 nM	Cc1ccc(-c2ccc(C)cc2C(=O)N2CCC[C@@]2(C)c2nc3cc(C(F)(F)F)ccc3[nH]2)cc1 [Ex. 5.192]
